Reference: patent publication US7651995B2, “Absorption enhancers such as e.g. BHT, BHA or propyl gallate” (Axcess Limited, priority 2003, dated 2010)

System: Caco-2 cells
Assay: Trans-epithelial electrical resistance (TEER) across Caco-2 cell monolayer
Assay type: cell-based, human
Conditions: Caco-2 monolayer; for TEER 15 minutes after addition: fall >50% of initial value considered significant; for TEER before addition: four replicates
Experimental: Caco-2 cells (a cell line derived from human colon adenocarcinoma) are grown as a confluent mono-layer on the surface of a porous membrane (pore size 0.4 μm, surface area 0.33 cm^2) separating two aqueous compartments, the upper compartment filled with 200 μl of culture medium, and the lower compartment containing 600 μl of the culture medium. Electrical resistance across the mono-layer is measured using an epithelial voltohmeter connected to electrodes inserted into the medium on either side of the mono-layer in the upper and lower compartments. This trans-epithelial electrical resistance (TEER) is measured immediately before, and fifteen minutes after the addition of aromatic alcohols to the upper compartment (typical results are given in the table below). Fall in TEER is considered indicative of the increased flow of materials (including bulk fluid phase) across the cell monolayer. Falls of greater than 50% of the initial value are considered significant. Reducing the concentration tends to reduce the effect observed.

[1] = agent 0.3 mg/ml in upper compartment
[2] = baseline immediately before addition of agent at 0.3 mg/ml

SMILES | TEER 15 minutes after addition [1] [ohm · cm^2] | TEER before addition [2] [ohm · cm^2] | TEER 15 minutes after addition (agent 0.2 mg/ml in upper compartment) [ohm · cm^2] | TEER 15 minutes after addition (agent 13 mg/ml in upper compartment) [ohm · cm^2] | TEER before addition (baseline immediately before addition of agent at 0.2 mg/ml) [ohm · cm^2] | TEER before addition (baseline immediately before addition of agent at 13 mg/ml) [ohm · cm^2]
COc1ccc(O)c(C(C)(C)C)c1 [Butylated hydroxy anisole, butylated hydroxy anisole] | 183 | 564 |  |  |  | 
Cc1cc(C(C)(C)C)c(O)c(C(C)(C)C)c1 [Butylated hydroxy toluene, butylated hydroxy toluene] | 194 | 633 |  |  |  | 
CCCOC(=O)c1cc(O)c(O)c(O)c1 [Propyl gallate, propyl gallate] |  |  | 629 | −0.6 | 667 | 494
